Data taken from the NIST ThermoML archive (doi:10.1021/je049612f).

Conditions: Gas, Vibrating wire viscometry

FS(F)(F)(F)(F)F [sulfur hexafluoride]
Conditions	viscosity [mPa·s]
375 K, 11030 kPa	0.06052
375 K, 11466 kPa	0.06322
375 K, 12235 kPa	0.0678
375 K, 12730 kPa	0.07044
375 K, 13213 kPa	0.07319
375 K, 13867 kPa	0.07655
375 K, 14447 kPa	0.07948
375 K, 15713 kPa	0.08527
375 K, 16802 kPa	0.09
400 K, 100.75 kPa	0.0197
400 K, 127.69 kPa	0.01971
400 K, 153.61 kPa	0.01972
400 K, 174.48 kPa	0.01973
400 K, 200.5 kPa	0.01973
400 K, 224.7 kPa	0.01975
400 K, 249.97 kPa	0.01975
400 K, 276.92 kPa	0.01976
400 K, 316.57 kPa	0.01977
400 K, 356.06 kPa	0.01979
400 K, 387.16 kPa	0.0198
400 K, 431.42 kPa	0.01981
400 K, 458.7 kPa	0.01982
400 K, 482.84 kPa	0.01983
400 K, 520.38 kPa	0.01984
400 K, 569.64 kPa	0.01987
400 K, 636.33 kPa	0.01989
400 K, 669.9 kPa	0.0199
400 K, 702.5 kPa	0.01991
400 K, 753.74 kPa	0.01994
400 K, 791.41 kPa	0.01995
400 K, 818.44 kPa	0.01996
400 K, 853.97 kPa	0.01998
400 K, 930.59 kPa	0.02001
400 K, 972.98 kPa	0.02003
400 K, 1025.6 kPa	0.02006
400 K, 1088.2 kPa	0.02009
400 K, 1153.3 kPa	0.02012
400 K, 1240.9 kPa	0.02017
400 K, 1319.7 kPa	0.02022
400 K, 1397.4 kPa	0.02025
400 K, 1462.5 kPa	0.02029
400 K, 1615.7 kPa	0.02039
400 K, 1688.5 kPa	0.02043
400 K, 1768 kPa	0.02049
400 K, 1876.4 kPa	0.02057
400 K, 1956 kPa	0.02063
400 K, 2349.8 kPa	0.02093
400 K, 2474.2 kPa	0.02104
400 K, 2539.4 kPa	0.02109
400 K, 2835.4 kPa	0.02138
400 K, 3021.7 kPa	0.02156
400 K, 3266.3 kPa	0.02184
400 K, 3463.7 kPa	0.02205
400 K, 3614.2 kPa	0.02225
400 K, 3864.1 kPa	0.02256
400 K, 4152.9 kPa	0.02298
400 K, 4564.1 kPa	0.02363
400 K, 4898.5 kPa	0.02421
400 K, 5193.2 kPa	0.02477
400 K, 5460.7 kPa	0.02531
400 K, 5742.7 kPa	0.02594
400 K, 6016.6 kPa	0.02658
400 K, 6359.6 kPa	0.02746
400 K, 6659.9 kPa	0.02831
400 K, 6950.7 kPa	0.02917
400 K, 7241 kPa	0.03009
400 K, 7553 kPa	0.03115
400 K, 7833.9 kPa	0.03216
400 K, 8142 kPa	0.03332
400 K, 8490.6 kPa	0.03475
400 K, 8799 kPa	0.03604
400 K, 9139.9 kPa	0.0375
400 K, 9483.5 kPa	0.03903
400 K, 9833.2 kPa	0.0407
400 K, 10191 kPa	0.04234
400 K, 10589 kPa	0.04429
400 K, 11000 kPa	0.04619
400 K, 11434 kPa	0.04827
400 K, 11902 kPa	0.05055
400 K, 12397 kPa	0.05295
400 K, 12979 kPa	0.05567
400 K, 13719 kPa	0.05901
400 K, 14342 kPa	0.06179
400 K, 15061 kPa	0.06486
400 K, 15882 kPa	0.0684
400 K, 16792 kPa	0.07201
400 K, 17814 kPa	0.076
400 K, 18718 kPa	0.07939
400 K, 19958 kPa	0.08386
425 K, 94.41 kPa	0.02078
425 K, 120.34 kPa	0.0208
425 K, 155.2 kPa	0.02081
425 K, 171.36 kPa	0.02081
425 K, 192.07 kPa	0.02082
425 K, 205.12 kPa	0.02083
425 K, 228.29 kPa	0.02084
425 K, 263.75 kPa	0.02085
425 K, 289.54 kPa	0.02086
425 K, 311.35 kPa	0.02086
425 K, 345.33 kPa	0.02088
425 K, 374.1 kPa	0.02088
425 K, 392.73 kPa	0.02089
425 K, 424.79 kPa	0.0209
425 K, 466.85 kPa	0.02092
425 K, 503.16 kPa	0.02093
425 K, 552.86 kPa	0.02095
425 K, 598.07 kPa	0.02097
425 K, 629.86 kPa	0.02098
425 K, 668.63 kPa	0.021
425 K, 715.37 kPa	0.02101
425 K, 764.24 kPa	0.02103
425 K, 813.31 kPa	0.02105
425 K, 867.54 kPa	0.02108
425 K, 939.66 kPa	0.02111
425 K, 997 kPa	0.02114
425 K, 1067.1 kPa	0.02117
425 K, 1141.5 kPa	0.02121
425 K, 1213.4 kPa	0.02124
425 K, 1299.4 kPa	0.02129
425 K, 1385.6 kPa	0.02133
425 K, 1442.8 kPa	0.02137
425 K, 1506.3 kPa	0.02141
425 K, 1587.6 kPa	0.02145
425 K, 1656.3 kPa	0.02149
425 K, 1757.6 kPa	0.02155
425 K, 1833.5 kPa	0.0216
425 K, 1920.5 kPa	0.02166
425 K, 2344.2 kPa	0.02196
425 K, 2479.6 kPa	0.02206
425 K, 2578.5 kPa	0.02214
425 K, 2931.1 kPa	0.02244
425 K, 3150.4 kPa	0.02264
425 K, 3325.5 kPa	0.02282
425 K, 3586.1 kPa	0.02307
425 K, 3797.1 kPa	0.0233
425 K, 4066.4 kPa	0.02362
425 K, 4298.8 kPa	0.02388
425 K, 4546.2 kPa	0.0242
425 K, 4863.6 kPa	0.02464
425 K, 5124.6 kPa	0.02501
425 K, 5454.2 kPa	0.02553
425 K, 5739.4 kPa	0.026
425 K, 6056.4 kPa	0.02654
425 K, 6339.5 kPa	0.02706
425 K, 6654.3 kPa	0.02768
425 K, 7006 kPa	0.0284
425 K, 7363.2 kPa	0.02921
425 K, 7712.7 kPa	0.03006
425 K, 8064.1 kPa	0.03097
425 K, 8392.3 kPa	0.03179
425 K, 8760.7 kPa	0.03277
425 K, 9135.4 kPa	0.03386
425 K, 9514.5 kPa	0.03501
425 K, 9876.1 kPa	0.03614
425 K, 10296 kPa	0.03744
425 K, 10899 kPa	0.03948
425 K, 11563 kPa	0.04171
425 K, 11725 kPa	0.04223
425 K, 12199 kPa	0.04389
425 K, 12731 kPa	0.04579
425 K, 13246 kPa	0.04767
425 K, 14152 kPa	0.0509
425 K, 14767 kPa	0.05309
425 K, 15462 kPa	0.05563
425 K, 16201 kPa	0.05822
425 K, 17025 kPa	0.06094
425 K, 17904 kPa	0.06397
425 K, 18751 kPa	0.06707
425 K, 19579 kPa	0.06993
425 K, 20442 kPa	0.07271
